Literature values as cited in patent US20170246117A1, “INJECTABLE MICROPARTICLES FOR HYPER-LOCALIZED RELEASE OF THERAPEUTIC AGENTS” (priority 2014, published 2017).

Tests used:
[1] = reported, Mollmann et al. 1998
[2] = 40 mg, human subjects; Derendorf et al. 1986; FIG. 7

For CCC(=O)O[C@]1(C(=O)SCF)[C@H](C)C[C@H]2[C@@H]3C[C@H](F)C4=CC(=O)C=C[C@]4(C)[C@@]3(F)[C@@H](O)C[C@@]21C [fluticasone propionate], the EC50 [1] is listed as 0.007 to 0.03 ng/mL.
For CC(C)(C)CC(=O)OCC(=O)[C@@]12OC(C)(C)O[C@@H]1C[C@H]1[C@@H]3CCC4=CC(=O)C=C[C@]4(C)[C@@]3(F)[C@@H](O)C[C@@]12C [triamcinolone hexacetonide], the “release profile after intra-articular administration” value [2] is listed as “significant initial burst followed by rapid decline”.
